The text below walks through data of paper PMC5729604, “Dual inhibitors of hepatitis C virus and hepatocellular carcinoma: design, synthesis and docking studies” (Future Science OA, 2017).

“Also recorded” adds a separate entry of the source.

In data set [1] the test system is HepG2 cells infected with hepatitis C virus. Put plainly: In vitro anti-HCV screening, qualitative RT-PCR of viral RNA. As to conditions: for Result (anti-HCV screening): at the used dose (below LD0 on HepG2 and PBMCs), 72 h, Positive = disappearance of viral RNA-amplified product (174 bp); for in vitro anti-HCV activity, in words: HCV-infected HepG2 cells, RT-PCR. Format: cell-based, HCV genotype-4. From the text: The safe compounds on RBCs (5a-g, 5i-l, 5p-r, 5v-w, 6b-g) were screened for their in vitro anti-HCV activity using the HCC HepG2 cell line infected with the HCV. Monitoring of the HCV viremia pre- and post-antiviral therapy through the detection of viral RNA using qualitative reverse transcription-PCR (RT-PCR) was adopted in the present investigation. This technique was reported to be the most frequently used, reliable and sensitive technique. Inhibition of viral replication was detected by amplification of viral RNA segments by the RT-PCR technique both in the cultivated infected cells alone (as a positive control) and at the specified dose for each test compound at optimal temperature. The test compound was considered to be active when it can inhibit the viral replication inside the HCV-infected HepG2 cells, as evidenced by the disappearance of the viral RNA-amplified products detected by the RT-PCR (compared with positive control).
The used concentration of each compound was chosen to be lower than the LD0 on HepG2 cells. Therefore, 100% viability of HepG2 cells was maintained, to make sure that any inhibitory effect was due to anti-HCV activity rather than cytotoxic activity on HepG2 cells. Moreover, the used concentrations were also chosen to be lower than the LD0 on PBMCs. Consequently, these doses could be used for inhibition of HCV in normal cells infected with the virus.
HepG2 cells were washed twice in RPMI-1640 medium supplemented with 200 μM L-glutamine and […] HEPES buffer. The cells were suspended at 12 × 10^4 cells/ml in RPMI culture medium (RPMI supplemented medium and 10% FBS). The appropriate number of cells to be used was chosen to be 12 × 10^3 cells/well (100 μl of the prepared suspension), and the cells were left to adhere on the polystyrene […] plates in an incubator at 37°C, 5% CO2 and 95% humidity for 24 h. The cells were washed once using RPMI supplemented medium, then infected with 2% HCV-infected serum (the used serum was a pole of ten patients infected with HCV genotype-4 with viral loads: 3.2–9 million IU/ml, G4 HCV RNA) in RPMI culture medium containing 8% FBS. The used dose of each compound was chosen so as to maintain 100% viability of the HepG2 cell line (the dose was lower than the LD0 of each compound on HepG2 cells as calculated from the in vitro anticancer screening). It was reported that, cultured HepG2 cells lost their biotransformation activity due to decrease in cytochrome (CYP) transcription. This waived its effect on the compounds stability during the test. Negative control is HepG2 cells with culture medium without addition of HCV infected serum or addition of tested compounds. Positive control is HepG2 cells with culture medium and infected HCV serum but without addition of tested compounds. After addition of the compounds, the plates were incubated at 37°C, 5% CO2 and 95% humidity for 72 h, followed by RNA extraction. The RNA strand was detected by RT-PCR using HCV-specific primers to the […] region of the virus.
RNA was extracted from HepG2 cells using the method described by El-Awady et al.. Culture cells were mixed with 200 μl of 4 mol/l guanidinium isothiocyanate (Fischer Bioreagents) containing 25 mmol/l sodium citrate (MP Biomedicals, CA, USA), 0.5% sarkosyl (Fischer Bioreagents), 0.1 mol/l β-mercaptoethanol (MP Biomedicals), and 100 μl sodium acetate (Merck). The lysed cells were mixed with an equal volume of phenol, chloroform and isoamyl alcohol (25:24:1, pH 4; Fischer Bioreagents). After vortexing, the mixture was centrifuged (14,000 r.p.m. for 10 min) at 4°C. The aqueous layer was collected and mixed with an equal volume of isopropanol (Acros Organics, Geel, Belgium). After incubation at -20°C overnight, RNA was precipitated by centrifugation (14,000 r.p.m. for 30 min) at 4°C, and the precipitated RNA was washed twice with 70% ethanol. […]

Data set [2] deals with human peripheral blood mononuclear cells (PBMCs). Format: cell-based. As to conditions: 72 h. As to the method:
The safe compounds on RBCs (5a-g, 5i-l, 5p-r, 5v-w, 6b-g) were subjected to the in vitro cytotoxicity assay on human peripheral blood mononuclear cells (PBMCs). Viability of cells was measured using neutral red uptake assay as described by Borenfreund and Puerner to determine the concentrations of each compound that were not cytotoxic. The results were interpreted to calculate both the lethal concentration that kills 50% of cells (LD50) and the maximum safe concentration that causes 100% viability (LD0) of each compound using GraphPad InStat 3.0 software (Figure 6 & Supplementary Table 3).
The PBMCs were isolated by density gradient centrifugation technique as described by Boyum. Blood samples were freshly collected into heparinized or ethylenediaminetetraacetic acid sterile tubes. Blood was diluted using equal volume of RPMI-1640 medium containing 25 mM HEPES and then layered over equal volume of Ficoll-Pague™ Plus (Fisher BioReagents™ Lymphocyte Separation Medium-LSM, PA, USA) and centrifuged (2000 r.p.m. for 30 min at acceleration and deceleration speeds zero & zero) at room temperature. The buffy mononuclear cell layer was collected using sterile Pasteur pipette into 50 ml sterile Falcon tube and washed twice in phosphate-buffered saline (Sigma-Aldrich) using centrifugation (1650 r.p.m. for 5 min). The isolated PBMCs viability was determined by hemocytometer count using the trypan blue exclusion method. The PBMCs were resuspended at 1 × 10^6 cells/ml in RPMI-1640 medium containing 25 mM HEPES supplemented with 10% heat-inactivated FBS. The appropriate number of cells was chosen to be 1 × 10^5 cells/well (100 μl of the prepared suspension).
A 2 mg/ml stock solution of each compound was prepared in DMF and filtered using a 0.2 μM syringe filter. The desired concentrations (20, 10, 5, 2.5 and 1.25 μg/ml) were prepared using serial dilution in a 96-well plate. Compound wells were prepared by adding 100 μl of the previously prepared concentrations to a suspension of 1 × 10^5 PBMCs in 100 μl culture media. Parallel concentrations of the solvent were prepared to be used as controls. Control wells were prepared by adding 100 μl culture media to a suspension of 1 × 10^5 PBMCs in 100 μl culture media. Blank wells contained 200 μl of culture media only (without cells or compound solution). Each set of samples was pipetted in duplicate. The plate was then gently shaken then incubated at 37°C, 5% CO2 for 72 h.
After incubation, neutral red assay was performed as described previously, and surviving cell fraction was calculated according to the previously mentioned equation. Also, the results were interpreted to calculate both the lethal concentration that kills 50% of cells (LD50) and the maximum safe concentration that cause 100% viability (LD0) of each compound using GraphPad InStat 3.0 software.

Take `COc1ccc(-c2nn(-c3ccccc3)cc2C=C2SC(=NN=C(C)c3cc4ccccc4o3)N(c3ccc(OC)cc3)C2=O)cc1` [Compound 5i, 2-[1-(Benzofuran-2-yl)ethylidenehydrazono]-5-{[3-(4-methoxyphenyl)-1-phenyl-1H-pyrazol-4-yl]methylene}-3-(4-methoxyphenyl)thiazolidin-4-one]: the “Result (anti-HCV screening)” value in data set [1] is “Negative”. For the same compound, in data set [2], the “(LD0) PBMCs” value amounted to 7.60 µg/mL, the LD0 is 7.60 µg/mL and the LD50 turned out to be 25.35 µg/mL.
For `CC(=NN=C1SC(=Cc2cn(-c3ccccc3)nc2-c2ccccc2)C(=O)N1C1CCCCC1)c1cc2ccccc2o1` [Compound 5j, 2-[1-(Benzofuran-2-yl)ethylidenehydrazono]-5-[(1,3-Diphenyl-1H-pyrazol-4-yl)methylene]-3-cyclohexylthiazolidin-4-one], the “Result (anti-HCV screening)” value in data set [1] was “Negative”. Also, in data set [2], the “(LD0) PBMCs” value is 9.90 µg/mL, the LD0 amounted to 9.90 µg/mL, the LD50 was determined as 134.00 µg/mL and the “LD50 (PBMCs)” value was 134.00 µg/mL.
On to `CC(=NN=C1SC(=Cc2cn(-c3ccccc3)nc2-c2ccc(Cl)cc2)C(=O)N1C1CCCCC1)c1cc2ccccc2o1` [Compound 5k, 2-[1-(Benzofuran-2-yl)ethylidenehydrazono]-5-{[3-(4-chlorophenyl)-1-phenyl-1H-pyrazol-4-yl]methylene}-3-cyclohexylthiazolidin-4-one], for which the “Result (anti-HCV screening)” value in data set [1] is listed as “Negative”. For the same compound, in data set [2], the “(LD0) PBMCs” value was determined as 33.29 µg/mL, the LD0 is 33.29 µg/mL and the LD50 came to 319.64 µg/mL.
In the case of `COc1ccc(-c2nn(-c3ccccc3)cc2C=C2SC(=NN=C(C)c3cc4ccccc4o3)N(C3CCCCC3)C2=O)cc1` [Compound 5l, 2-[1-(Benzofuran-2-yl)ethylidenehydrazono]-5-{[3-(4-methoxyphenyl)-1-phenyl-1H-pyrazol-4-yl]methylene}-3-cyclohexylthiazolidin-4-one], in data set [1], the “in vitro anti-HCV activity, in words” value was “showed in vitro anti-HCV activity; also recorded: exhibited in vitro anti-HCV activity” and the “Result (anti-HCV screening)” value is “Positive”. In data set [2], the “(LD0) PBMCs” value was found to be 8.33 µg/mL, the LD0 was 8.33 µg/mL, the LD50 was determined as 46.89 µg/mL and the “LD50 (PBMCs)” value was 46.89 µg/mL.
With `CC(=NN=C1SC(=Cc2cn(-c3ccccc3)nc2-c2ccccc2)C(=O)N1c1ccc(Cl)cc1)c1nc2ccccc2[nH]1` [Compound 5p, 2-[1-(1H-Benzimidazole-2-yl)ethylidenehydrazono]-5-[(1,3-Diphenyl-1H-pyrazol-4-yl)methylene]-3-(4-chlorophenyl)thiazolidin-4-one], in data set [1], the “in vitro anti-HCV activity, in words” value is “showed in vitro anti-HCV activity; also recorded: exhibited in vitro anti-HCV activity” and the “Result (anti-HCV screening)” value is listed as “Positive”. Besides, in data set [2], the “(LD0) PBMCs” value turned out to be 12.67 µg/mL, the LD0 stood at 12.67 µg/mL, the LD50 came out at 120.46 µg/mL and the “LD50 (PBMCs)” value is 120.46 µg/mL.
With `CC(=NN=C1SC(=Cc2cn(-c3ccccc3)nc2-c2ccc(Cl)cc2)C(=O)N1c1ccc(Cl)cc1)c1nc2ccccc2[nH]1` [Compound 5q, 2-[1-(1H-Benzimidazole-2-yl)ethylidenehydrazono]-5-{[3-(4-chlorophenyl)-1-phenyl-1H-pyrazol-4-yl]methylene}-3-(4-chlorophenyl)thiazolidin-4-one], the “Result (anti-HCV screening)” value in data set [1] is recorded as “Negative”. In data set [2], the “(LD0) PBMCs” value came out at 190.45 µg/mL, the LD0 is 190.45 µg/mL, the LD50 is 1246.96 µg/mL and the “LD50 (PBMCs)” value is 1246.96 µg/mL.
Regarding `COc1ccc(-c2nn(-c3ccccc3)cc2C=C2SC(=NN=C(C)c3nc4ccccc4[nH]3)N(c3ccc(Cl)cc3)C2=O)cc1` [Compound 5r, 2-[1-(1H-Benzimidazole-2-yl)ethylidenehydrazono]-5-{[3-(4-methoxyphenyl)-1-phenyl-1H-pyrazol-4-yl]methylene}-3-(4-chlorophenyl)thiazolidin-4-one], the “Result (anti-HCV screening)” value in data set [1] is recorded as “Negative”. In data set [2], the “(LD0) PBMCs” value turned out to be 7.33 µg/mL, the LD0 turned out to be 7.33 µg/mL, the LD50 amounted to 44.00 µg/mL and the “LD50 (PBMCs)” value was 44.00 µg/mL.
Regarding `CC(=NN=C1SC(=Cc2cn(-c3ccccc3)nc2-c2ccccc2)C(=O)N1C1CCCCC1)c1nc2ccccc2[nH]1` [Compound 5v, 2-[1-(1H-Benzimidazole-2-yl)ethylidenehydrazono]-5-[(1,3-Diphenyl-1H-pyrazol-4-yl)methylene]-3-cyclohexylthiazolidin-4-one], in data set [1], the “in vitro anti-HCV activity, in words” value is given as “showed in vitro anti-HCV activity; also recorded: exhibited in vitro anti-HCV activity” and the “Result (anti-HCV screening)” value is given as “Positive”. For the same compound, in data set [2], the “(LD0) PBMCs” value came out at 13.85 µg/mL, the LD0 was 13.85 µg/mL and the LD50 turned out to be 43.40 µg/mL.
With `CC(=NN=C1SC(=Cc2cn(-c3ccccc3)nc2-c2ccc(Cl)cc2)C(=O)N1C1CCCCC1)c1nc2ccccc2[nH]1` [Compound 5w, 2-[1-(1H-Benzimidazole-2-yl)ethylidenehydrazono]-5-{[3-(4-chlorophenyl)-1-phenyl-1H-pyrazol-4-yl]methylene}-3-cyclohexylthiazolidin-4-one], the “Result (anti-HCV screening)” value in data set [1] is listed as “Negative”. In data set [2], the “(LD0) PBMCs” value turned out to be 16.03 µg/mL, the LD0 came to 16.03 µg/mL and the LD50 was determined as 36.28 µg/mL.
